Data from PubChem BioAssay AID1963986 (Molecular Pharmacology Branch, DTP, NCI, 2024).

System: 171881-019-R-J1-PDC tumor spheroid viability
Assay: Anticancer human tumor 171881-019-R-J1-PDC patient-derived invasive breast carcinoma cell line growth inhibition [PI3K]
Conditions: spheroids with HUVEC and MSC; for IC50: curve of first compound; for viability, T/C: stronger effect = lower value; active = viability on the fitted dose curve at most 10% of control; inactive = the rest
Text: Combinatorial screen of targeted agents with the PI3K inhibitors inavolisib, alpelisib, duvelisib, and copanlisib in multi-cell type tumor spheroids
A high-throughput screen of multi-cell type tumor spheroids was designed to identify active combinations of targeted small molecules and PI3K pathway inhibitors. Complex spheroids include a stromal component modeled by human endothelial cells (HUVEC) and fibroblasts modeled by human mesenchymal stem cells (MSCs). The concentration ranges selected for each drug and investigational agent were based upon clinically achievable concentrations if the clinical Cmax of the agent was known.
Compounds. The drugs and investigational agents: inavolisib (NSC800729), alpelisib (NSC765974), duvelisib (NSC772469), copanlisib (NSC816437), ipatasertib (NSC767898), afuresertib (NSC778305), talazoparib (NSC767125), sapanisertib (NSC764658), selumetinib (NSC741078), tovorafenib (DAY101, NSC766906), vemurafenib (NSC761431), ravoxertinib (NSC781343), sotorasib (NSC818433), MRTX1133 (NSC 836407), abemaciclib (NSC 768073), palbociclib (NSC758247), venetoclax (NSC 766270), SY5609 (NSC837396), enzalutamide (NSC755605), and darolutamide (NSC825331), were obtained from the National Cancer Institute (NCI) Developmental Therapeutics Program Chemical Repository. The FDA-approved anticancer drug set is available from the NCI Developmental Therapeutics Program. […] The stock solutions were prepared in dimethyl sulfoxide (DMSO, Sigma-Aldrich, St. Louis, MO, cat. D2650) at 800-fold the tested concentration and stored at -70 degrees C prior to their use. All drugs and investigational agents were tested over a range starting from a high concentration at or near the clinical Cmax and decreasing in half-log increments. If the clinical Cmax for an agent had not been determined, the highest concentration tested was 10 microM.
Cell Culture. All cells were maintained in an incubator at 37 degrees C and 5% CO2 with 95% humidity. The PDC lines were cultured according to standard operating procedures established by the NCI PDMR (https://pdmr.cancer.gov/sops/default.htm). All PDCs were thawed and cultured in Matrigel-coated flasks prepared with a working solution of 1X Ham's F-12 nutrient mix, without supplementation (Invitrogen, Waltham, MA, cat. 11765054), 100 U/mL penicillin-streptomycin (Invitrogen, cat. 15140122), and 2.5% Matrigel (Corning Inc., Corning, NY, cat. 354248) for the first three passages. The 354836-022-R-J1-PDC, 475296-252-R-J1-PDC, and 997726-040-R-J2-PDC lines were cultured in 6A media, which includes advanced DMEM/F-12 (Thermo Fisher Scientific, cat. 12634028), 10 mM HEPES (Thermo Fisher Scientific, cat. 15630080), 1X GlutaMAX supplement (Thermo Fisher Scientific, cat. 35050061), 0.1 mg/mL primocin (InvivoGen, San Diego, CA, cat. ant-pm-2), 10% defined fetal bovine serum, heat inactivated (HyClone Laboratories Inc., Logan, UT, cat. SH30070.03HI), 50% L-WRN conditioned media (ATCC, cat. CRL-3276), 1.25 mM N-Acetyl-L-cysteine (Sigma-Aldrich, cat. A9165), 10 mM nicotinamide (Sigma-Aldrich, cat. N0636), 1X B-27 supplement (Thermo Fisher Scientific, cat. 17504044), 1X N-2 supplement (Thermo Fisher Scientific, cat. 17502048), and 10 microM Y-27632 dihydrochloride (Tocris Bioscience, Bristol, United Kingdom, cat. 1254). The 624824-186-R-J2-PDC line was cultured in 6C/Colon 1B media, which includes all 6A media components plus 50 ng/mL human EGF recombinant protein (Thermo Fisher Scientific, cat. PHG0311). […]
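Note: spheroids exposed to compound for 7 days before viability read.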
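Throughout, for viability, T/C: 100% = DMSO vehicle-treated spheroids.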

CCCS(=O)(=O)Nc1ccc(F)c(C(=O)c2c[nH]c3ncc(-c4ccc(Cl)cc4)cc23)c1F + CC(Nc1ccc2c(c1)OCCn1cc(N3C(=O)OCC3C(F)F)nc1-2)C(N)=O
5.81 µM: IC50 (second compound 0.00316 µM)
inactive: viability, T/C (second compound 0.00316 µM, first compound 0.0316 µM) 92.3% | viability, T/C (second compound 0.00316 µM, first compound 0.1 µM) 109% | viability, T/C (second compound 0.00316 µM, first compound 0.316 µM) 92.9% | viability, T/C (second compound 0.00316 µM, first compound 1 µM) 109% | viability, T/C (second compound 0.00316 µM, first compound 3.16 µM) 94.6% | viability, T/C (second compound 0.00316 µM, first compound 10 µM) 10% | viability, T/C (second compound 0.01 µM, first compound 0.0316 µM) 78.4% | viability, T/C (second compound 0.01 µM, first compound 0.1 µM) 87.2% | viability, T/C (second compound 0.01 µM, first compound 0.316 µM) 101% | viability, T/C (second compound 0.01 µM, first compound 1 µM) 102% | viability, T/C (second compound 0.01 µM, first compound 3.16 µM) 92.6% | viability, T/C (second compound 0.01 µM, first compound 10 µM) 11.1% | viability, T/C (second compound 0.0316 µM, first compound 0.0316 µM) 63.3% | viability, T/C (second compound 0.0316 µM, first compound 0.1 µM) 64.9% | viability, T/C (second compound 0.0316 µM, first compound 0.316 µM) 81.9% | viability, T/C (second compound 0.0316 µM, first compound 1 µM) 83.3% | viability, T/C (second compound 0.0316 µM, first compound 3.16 µM) 83% | viability, T/C (second compound 0.1 µM, first compound 0.0316 µM) 46.7% | viability, T/C (second compound 0.1 µM, first compound 0.1 µM) 51.4% | viability, T/C (second compound 0.1 µM, first compound 0.316 µM) 53.9% | viability, T/C (second compound 0.1 µM, first compound 1 µM) 57% | viability, T/C (second compound 0.1 µM, first compound 3.16 µM) 61.7% | viability, T/C (second compound 0.316 µM, first compound 0.0316 µM) 32.5% | viability, T/C (second compound 0.316 µM, first compound 0.1 µM) 32.4% | viability, T/C (second compound 0.316 µM, first compound 0.316 µM) 42% | viability, T/C (second compound 0.316 µM, first compound 1 µM) 44.7% | viability, T/C (second compound 0.316 µM, first compound 3.16 µM) 42.3% | viability, T/C (second compound 1 µM, first compound 0.0316 µM) 21% | viability, T/C (second compound 1 µM, first compound 0.1 µM) 28.4% | viability, T/C (second compound 1 µM, first compound 0.316 µM) 28.4% | viability, T/C (second compound 1 µM, first compound 1 µM) 33.5% | viability, T/C (second compound 1 µM, first compound 3.16 µM) 35.6% | viability, T/C (second compound 1 µM, first compound 10 µM) 3.55%
< 0.0316 µM: IC50 (second compound 0.316 µM) | IC50 (second compound 1 µM)
active: viability, T/C (second compound 0.0316 µM, first compound 10 µM) 7.38% | viability, T/C (second compound 0.1 µM, first compound 10 µM) 5.11% | viability, T/C (second compound 0.316 µM, first compound 10 µM) 5%
4.85 µM: IC50 (second compound 0.0316 µM)
3.48 µM: IC50 (second compound 0.1 µM)
5.75 µM: IC50 (second compound 0.01 µM)
